# pIC50: −log10 of the molar value. Calls of active or inactive are those of the source. No cut-off for these calls is given here.
# Target: Bromodomain-containing protein 4 (Homo sapiens, UniProt O60885)
# Experiment: Inhibition of recombinant human N-terminal His6-tagged Brd4-BD1 expressed in Escherichia coli BL21(DE3) by LOGSY NMR titration method
pIC50,inhibition,Structure (SMILES)
–,Active,CNc1cc(N(C)Cc2ccccc2)nn2c(C)nnc12
4.62,–,COc1ccc(-c2ccc3nnc(C)n3n2)cc1OC
–,Active,Cc1nnc2ccc(N(C)Cc3ccc(F)c(F)c3)nn12

# The next lines start with the molecule.
Structure (SMILES),pIC50,inhibition
Cc1nnc2ccc(-c3cnn(C)c3Oc3ccccc3)nn12,5.70,–
CNc1cc(-c2ccccc2)nn2c(C)nnc12,–,Active
Cc1nnc2c(N)cc(-c3cnn(C)c3Oc3ccccc3)nn12,–,Active
Cc1nnc2ccc(-c3ccccc3)nn12,–,Active
